Measurements: patent US20180355390A1, “Method to produce L-methionine by a fermentative production” (Evonik Degussa GmbH, priority 2016, published 2018)
Values after ≈ are worked out from the molar mass of the structure shown.

Tests used:
physchem [1] = details: Residual solubility L-Methionine
Procedure: The amount of product in the fermentation medium or in the different downstream process fluxes such as supernatant, permeate or mother liquors of crystallization can be determined using a number of methods known in the art, for example, high performance liquid chromatography (HPLC) or gas chromatography (GC). For example the quantity of methionine obtained in the medium is measured by HPLC after OPA/FMOC derivatization using L-methionine (Fluka, Ref 64319) as a standard.
Different solvents were assayed on the fermentation concentrated supernatant issued from step ii) with the same ratio of 70% (solvent/(methionine containing fraction+solvent), in weight).

physchem [2] = assay: physchem
Procedure: The methionine solubility at 35° C. is approximately 70 g/L. If the solution is concentrated to approximately 250 g/L, under a vacuum ensuring a temperature of 35° C., the solid methionine recovery yield is >70%. Under these conditions, and by virtue of the removal of the soluble impurities, the solid methionine crystallizes in the form of spongy spheres which are easy to separate from the mother liquors.
The fermentation supernatant issued from step ii) was concentrated to approximately 250 g·L^−1 and ethanol has been added at different proportions 0%, 30% and 70% (corresponding to the ratio solvent/(methionine containing fraction+solvent) in weight). The theoretical yield of recovery has been determined in function of ethanol content.

CSCC[C@H](N)C(=O)O [L-methionine]
solubility (physchem [1]; concentrated fermentation supernatant with added solvent, 4 °C, aqueous with cosolvent or surfactant or cyclodextrin, Ethanol, ratio 70% by weight): 4000 to 5000 µg/mL | solubility (physchem [1]; concentrated fermentation supernatant with added solvent, 4 °C, aqueous with cosolvent or surfactant or cyclodextrin, Isopropanol, ratio 70% by weight): 4000 to 5000 µg/mL | solubility (physchem [1]; concentrated fermentation supernatant with added solvent, 4 °C, aqueous with cosolvent or surfactant or cyclodextrin, Methanol, ratio 70% by weight): 5000 to 6000 µg/mL | solubility (physchem [1]; concentrated fermentation supernatant with added solvent, aqueous with cosolvent or surfactant or cyclodextrin, 2-Butanone, ratio 70% by weight, room temperature): > 15000 µg/mL | solubility (physchem [1]; concentrated fermentation supernatant with added solvent, aqueous with cosolvent or surfactant or cyclodextrin, Acetonitrile, ratio 70% by weight, room temperature): 5500 to 6500 µg/mL | solubility (physchem [1]; concentrated fermentation supernatant with added solvent, aqueous with cosolvent or surfactant or cyclodextrin, Ethanol, ratio 70% by weight, room temperature): 5000 to 6000 µg/mL | solubility (physchem [1]; concentrated fermentation supernatant with added solvent, aqueous with cosolvent or surfactant or cyclodextrin, Isopropanol, ratio 70% by weight, room temperature): 5000 to 6000 µg/mL | solubility (physchem [1]; concentrated fermentation supernatant with added solvent, aqueous with cosolvent or surfactant or cyclodextrin, Methanol, ratio 70% by weight, room temperature): 7000 to 8000 µg/mL | solubility (physchem [1]; concentrated fermentation supernatant, plasma or biological fluid, no solvent (Reference), room temperature): 65000 µg/mL (≈ 436 mM) | solubility (physchem [2]; 35 °C): ~70000 µg/mL (≈ 469 mM) | solubility (physchem [2]; 37 °C): ~70000 µg/mL (≈ 469 mM)
